Common to all, as to assay type: cell-based
For series [1], the target named is T1, AR (Homo sapiens, UniProt P10275, T878A).
T1 construct: endogenous in cells; host or cells: LNCaP cells
T1 sequence (P10275 1-920 T878A): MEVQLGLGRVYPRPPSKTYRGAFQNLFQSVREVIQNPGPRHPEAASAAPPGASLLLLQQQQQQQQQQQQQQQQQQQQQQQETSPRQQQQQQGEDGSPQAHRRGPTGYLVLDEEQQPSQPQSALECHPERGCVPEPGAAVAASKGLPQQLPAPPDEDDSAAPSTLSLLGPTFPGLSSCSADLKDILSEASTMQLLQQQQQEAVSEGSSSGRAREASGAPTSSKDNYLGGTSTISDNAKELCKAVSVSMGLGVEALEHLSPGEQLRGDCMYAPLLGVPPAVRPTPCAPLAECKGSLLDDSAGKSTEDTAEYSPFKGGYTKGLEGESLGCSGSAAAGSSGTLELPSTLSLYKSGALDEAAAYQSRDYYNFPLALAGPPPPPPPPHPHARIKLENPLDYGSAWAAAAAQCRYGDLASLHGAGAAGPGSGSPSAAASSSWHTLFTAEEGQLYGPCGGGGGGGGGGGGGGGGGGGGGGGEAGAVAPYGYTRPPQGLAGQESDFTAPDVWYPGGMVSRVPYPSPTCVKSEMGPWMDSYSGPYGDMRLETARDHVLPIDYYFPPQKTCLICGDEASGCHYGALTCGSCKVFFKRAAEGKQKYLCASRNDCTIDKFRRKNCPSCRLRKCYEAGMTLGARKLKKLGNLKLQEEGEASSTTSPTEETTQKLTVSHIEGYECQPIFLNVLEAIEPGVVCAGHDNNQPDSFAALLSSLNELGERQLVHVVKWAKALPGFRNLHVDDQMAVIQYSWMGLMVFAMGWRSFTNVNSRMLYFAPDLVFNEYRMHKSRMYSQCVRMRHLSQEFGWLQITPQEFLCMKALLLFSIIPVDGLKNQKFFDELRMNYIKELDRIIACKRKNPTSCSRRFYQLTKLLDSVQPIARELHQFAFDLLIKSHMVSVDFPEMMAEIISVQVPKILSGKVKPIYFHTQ
Nature of the series: In Cell Western AR degradation assay in LNCaP cells. The conditions noted are these: 18 hrs, greater than 50% degradation at 10 μM (method says 20 μM). Here is the method:
In Cell Western (AR degradation Assay, Table 2, B10). LNCaP cells were plated in 96-well clear bottom black plates (20K cells/well) in RPMI supplemented with 8% CFS. Following 48 hr incubation, cells were treated with hormone (20 μM test compound) for 18 hrs. Cells were fixed with formaldehyde (3.7%) and permeabilized using PBS (0.1% TRITON X-100). Cells were incubated with anti-AR antibody (N20, 1:2000), washed with PBS (0.1% Tween), and stained with 2nd antibody (Biotium CF770 goat anti-rabbit, 1:2000). AR protein expression was assessed using the LI-COR Odyssey imaging system. DRAQ5 (DNA stain, 1:10,000, Thermo Scientific) was used to normalize AR protein expression.
For B4-B7, scoring system is based on the relative AR target gene agonist/antagonist activity of test compounds when compared to benchmark compounds enzalutamide or bicalutamide. […] The lack of agonist activity is desirable for therapies intended to treat CRPC. For B4 and B6, a score of 1 indicates less agonism (highly desired activity) than benchmark compound enzalutamide, a score of 2 indicates equal agonism to enzalutamide (desirable), a score of 3 indicates agonism between enzalutamide and bicalutamide (less desirable activity), a score of 4 indicates equal agonism to bicalutamide (liability), and a score of 5 indicates higher agonism than bicalutamide (liability). For B5 and B7 a score of 1 indicates higher antagonist efficacy (highly desired activity) than benchmark compound enzalutamide, a score of 2 indicates equal antagonist efficacy to enzalutamide (desirable), a score of 3 indicates antagonist efficacy between enzalutamide and bicalutamide (less desirable activity), a score of 4 indicates antagonist efficacy equal to bicalutamide (liability), and a score of 5 indicates antagonist efficacy worse than bicalutamide (liability) For B9, Compounds that degrade AR (greater than 50% degradation at 10 μM) are indicated.

The target in series [2] is T2, AR (Homo sapiens, UniProt P10275).
T2 construct: expressed in transfected cells; host or cells: CV1 cells
T2 sequence (P10275 1-920): T1 sequence (P10275 1-920 T878A) with A878T
Nature of the series: Reporter gene assay, AR transcriptional (MMTV-Luc) in CV1 cells. Conditions: pcDNA-AR + MMTV-Luc, 0.1 nM R1881 plus test compound, 24 hrs, read-out: B1 = AR transcriptional IC50 (μM) in CV1 cells. Here is the method: (§1) Reporter Gene Assay (IC50 determination, Table 2, B1-B3). CV1 cells were seeded into 96-well cell culture plates and transfected with Lipofectin. For AR transcriptional assays, the DNA mixture consisted of pcDNA-AR, MMTV-Luc (androgen responsive reporter gene), and Renilla-Luc (for assessing transfection efficiency and toxicity). Following overnight incubation, cells were induced with hormone (0.1 nM R1881 (synthetic AR agonist) plus increasing concentrations of test compound) for 24 hrs. Cells were lysed and luciferase activity was quantified using Dual Luciferase Reagent (DLR). IC50 determination was assessed using GraphPad Prism software.
In general terms: In a reporter assay the amount or activity of a reporter protein is the signal.

In the next series the test system is CV1 cells. Put plainly: Toxicity of test compound in the CV1 reporter gene assay (Renilla-Luc). As for the experimental part:
as §1

Positions count from the first letter of the chain named.

Broadly, the IC50 is the midpoint of a concentration-inhibition curve. On to `CC1(C)CC(=O)C2=C(C1)Nc1ccc3ncccc3c1C2c1cc(C(F)(F)F)cc(C(F)(F)F)c1` (centres unmarked) [Compound A50], for which the “B9 = AR degradation in LNCaP cells (In-Cell Western)” value (“B9 = AR degradation in LNCaP cells” for short) on AR [1] is recorded as “Degrader (Compounds that degrade AR (greater than 50% degradation at 10 μM) are indicated)”. The IC50 at AR [2] was 6 µM.
For `CC1(C)CC(=O)C2=C(C1)Nc1ccc3ncccc3c1C2c1ccc(Br)s1` (centres unmarked) [Compound A63] the same measures were “Degrader (Compounds that degrade AR (greater than 50% degradation at 10 μM) are indicated)” and 1.9 µM.
For the compound `CC1(C)CC(=O)C2=C(C1)Nc1ccc3nccnc3c1C2c1cc2ccccc2s1` (racemic) [Compound A93, (±)-12-(benzo[b]thiophen-2-yl)-9,9-dimethyl-8,9,10,12-tetrahydropyrazino[2,3-a]acridin-11(7H)-one], at AR [1], the “B9 = AR degradation in LNCaP cells” value was “Degrader (Compounds that degrade AR (greater than 50% degradation at 10 μM) are indicated)”. Besides, the IC50 at AR [2] turned out to be 1.2 µM.
`CC1(C)CC(=O)C2=C(C1)Nc1ccc3ncccc3c1C2c1c[nH]c2ccc(F)cc12` (centres unmarked) [Compound A68]: the “B9 = AR degradation in LNCaP cells” value on AR [1] was “Degrader (Compounds that degrade AR (greater than 50% degradation at 10 μM) are indicated)”. Also, on AR [2], the IC50 is over 10 µM.
As to `CC1(C)CC(=O)C2=C(C1)Nc1ccc3ncccc3c1C2c1ccc(Cl)c([N+](=O)[O-])c1` (centres unmarked) [Compound A75], the “B9 = AR degradation in LNCaP cells” value at AR [1] is given as “Degrader (Compounds that degrade AR (greater than 50% degradation at 10 μM) are indicated)”. Moreover, the IC50 at AR [2] was over 10 µM.
On to `Cn1ncc2ccc3c(c21)C(c1ccc(Br)s1)C1=C(CC(C)(C)CC1=O)N3` (centres unmarked) [Compound A113], for which the “B9 = AR degradation in LNCaP cells” value at AR [1] is “Degrader (Compounds that degrade AR (greater than 50% degradation at 10 μM) are indicated)”. For the same compound, on AR [2], the IC50 turned out to be 5.1 µM.
In the case of `CC1(C)CC(=O)C2=C(C1)Nc1ccc3c(c1C2c1ccc(Cl)s1)OCO3` (centres unmarked) [Compound A107], at AR [1], the “B9 = AR degradation in LNCaP cells” value is “Degrader (Compounds that degrade AR (greater than 50% degradation at 10 μM) are indicated)”. Further, on AR [2], the IC50 worked out at 0.9 µM.
Regarding `Cn1ncc2ccc3c(c21)C(c1ccc(Cl)s1)C1=C(CC(C)(C)CC1=O)N3` (centres unmarked) [Compound A109], the “B9 = AR degradation in LNCaP cells” value at AR [1] is reported as “Degrader (Compounds that degrade AR (greater than 50% degradation at 10 μM) are indicated)”. Besides, the IC50 on AR [2] was 4.7 µM.
`CC1(C)CC(=O)C2=C(C1)Nc1ccc3ccccc3c1C2c1ccc(-c2nnc(N)s2)cc1` (centres unmarked) [Compound A19]: in the series with CV1 cells, the “B2 = % Toxicity of test compound (20 μM)” value stood at 0% and the “B3 = % Toxicity of test compound (60 μM)” value was 87%. Besides, the IC50 on AR [2] is over 10 µM.
As for `CC1(C)CC(=O)C2=C(C1)Nc1ccc3ncccc3c1C2c1ccc(Cl)c([N+](=O)[O-])c1` (centres unmarked) [Compound A5], in the series with CV1 cells, the “B2 = % Toxicity of test compound (20 μM)” value came out at 24% and the “B3 = % Toxicity of test compound (60 μM)” value was 68%. Also, the IC50 at AR [2] was 3.3 µM.
The like results for `O=[N+]([O-])c1ccc(C2C3=C(CCCC3)Nc3ccc4ccccc4c32)cc1` (centres unmarked) [Compound A25] were, in that order, 23%, 42% and over 10 µM.
For `CC1(C)CC(=O)C2=C(C1)Nc1ccc3ccccc3c1C2c1cccnc1` (centres unmarked) [Compound A13] the same measures were 0%, 78% and 12 µM.
On to `O=C1CCCC2=C1C(c1ccc3c(c1)OCO3)c1c(ccc3ccccc13)N2` (centres unmarked) [Compound A15], for which, in the series on CV1 cells, the “B2 = % Toxicity of test compound (20 μM)” value is given as 0% and the “B3 = % Toxicity of test compound (60 μM)” value worked out at 0%. The IC50 on AR [2] is over 10 µM.
For `Cc1n[nH]c2c1C(c1ccc([N+](=O)[O-])cc1)C1=C(N2)C(C)(C)CCC1=O` (centres unmarked) [Compound A23], in the series on CV1 cells, the “B2 = % Toxicity of test compound (20 μM)” value came to 0% and the “B3 = % Toxicity of test compound (60 μM)” value is given as 0%. Also, the IC50 on AR [2] was over 10 µM.
On to `O=C1CCCC2=C1C(c1ccco1)c1c(ccc3ccccc13)N2` (centres unmarked) [Compound A17], for which, in the series on CV1 cells, the “B2 = % Toxicity of test compound (20 μM)” value was found to be 0% and the “B3 = % Toxicity of test compound (60 μM)” value is reported as 36%. Moreover, the IC50 at AR [2] is over 10 µM.
With `CC1(C)CC(=O)C2=C(C1)Nc1ccc3ccccc3c1C2c1c[nH]c2ccccc12` (centres unmarked) [Compound A14], in the series on CV1 cells, the “B2 = % Toxicity of test compound (20 μM)” value is given as 0% and the “B3 = % Toxicity of test compound (60 μM)” value is 0%. On AR [2], the IC50 was over 10 µM.
As to `O=C1CCCC2=C1C(c1ccc(O)cc1)c1c(ccc3ccccc13)N2` (centres unmarked) [Compound A20], in the series on CV1 cells, the “B2 = % Toxicity of test compound (20 μM)” value is listed as 0% and the “B3 = % Toxicity of test compound (60 μM)” value is given as 0%. Further, at AR [2], the IC50 was over 10 µM.
On to `CC1(C)CC(=O)C2=C(C1)Nc1ccc3ncccc3c1C2c1ccc2nonc2c1` (centres unmarked) [Compound A30], for which the IC50 on AR [2] stood at 1.8 µM.
On to `CC1(C)CC(=O)C2=C(C1)Nc1ccc3ccccc3c1C2c1cc([N+](=O)[O-])c(O)cc1Cl` (centres unmarked) [Compound A16], for which, in the series on CV1 cells, the “B2 = % Toxicity of test compound (20 μM)” value is reported as 0% and the “B3 = % Toxicity of test compound (60 μM)” value is 0%. Besides, the IC50 at AR [2] was over 10 µM.
Turning to `O=C1CCCC2=C1C(c1cccc([N+](=O)[O-])c1)c1c(ccc3ccccc13)N2` (centres unmarked) [Compound A21], in the series on CV1 cells, the “B2 = % Toxicity of test compound (20 μM)” value is 0% and the “B3 = % Toxicity of test compound (60 μM)” value stood at 28%. Besides, at AR [2], the IC50 is over 10 µM.
The like results for `CC1(C)CC(=O)C2=C(C1)Nc1ccc3ncccc3c1C2c1ccc(O)cc1` (centres unmarked) [Compound A24] were, in that order, 0%, 35% and over 10 µM.

For the origin of these results see US20180303807A1, “ANDROGEN RECEPTOR LIGANDS” (DUKE UNIVERSITY, priority 2015, published 2018).
